In test [1] the target is T1, Inhibitor of nuclear factor kappa-B kinase subunit beta (Homo sapiens) (UniProt O14920).
T1 sequence (whole entry): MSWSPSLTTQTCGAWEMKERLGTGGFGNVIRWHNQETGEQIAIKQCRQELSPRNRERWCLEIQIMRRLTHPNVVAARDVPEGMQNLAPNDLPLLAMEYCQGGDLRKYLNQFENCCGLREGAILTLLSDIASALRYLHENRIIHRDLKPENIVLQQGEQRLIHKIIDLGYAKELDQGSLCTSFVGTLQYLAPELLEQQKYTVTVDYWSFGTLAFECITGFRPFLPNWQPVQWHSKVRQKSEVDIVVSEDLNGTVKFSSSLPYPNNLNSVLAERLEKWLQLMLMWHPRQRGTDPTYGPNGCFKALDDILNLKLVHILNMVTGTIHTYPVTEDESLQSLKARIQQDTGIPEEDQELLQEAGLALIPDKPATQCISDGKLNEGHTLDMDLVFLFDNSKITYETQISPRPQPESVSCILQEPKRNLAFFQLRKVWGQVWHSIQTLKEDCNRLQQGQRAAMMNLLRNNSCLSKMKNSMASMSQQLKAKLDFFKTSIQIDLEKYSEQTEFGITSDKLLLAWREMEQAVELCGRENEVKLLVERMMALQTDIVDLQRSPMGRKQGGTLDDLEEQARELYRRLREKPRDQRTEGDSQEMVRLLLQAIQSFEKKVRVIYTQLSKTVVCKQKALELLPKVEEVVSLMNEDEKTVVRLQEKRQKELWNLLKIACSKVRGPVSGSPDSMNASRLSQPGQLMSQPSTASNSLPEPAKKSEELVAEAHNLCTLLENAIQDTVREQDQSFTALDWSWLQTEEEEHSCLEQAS
In words: Selectivity interaction (SelectScreen profiling (Invitrogen)) EUB0000607a IKBKB. The note with it: at 2 µM.

The target in test [2] is T2, Protein kinase C iota type (Homo sapiens) (UniProt P41743).
T2 sequence (whole entry): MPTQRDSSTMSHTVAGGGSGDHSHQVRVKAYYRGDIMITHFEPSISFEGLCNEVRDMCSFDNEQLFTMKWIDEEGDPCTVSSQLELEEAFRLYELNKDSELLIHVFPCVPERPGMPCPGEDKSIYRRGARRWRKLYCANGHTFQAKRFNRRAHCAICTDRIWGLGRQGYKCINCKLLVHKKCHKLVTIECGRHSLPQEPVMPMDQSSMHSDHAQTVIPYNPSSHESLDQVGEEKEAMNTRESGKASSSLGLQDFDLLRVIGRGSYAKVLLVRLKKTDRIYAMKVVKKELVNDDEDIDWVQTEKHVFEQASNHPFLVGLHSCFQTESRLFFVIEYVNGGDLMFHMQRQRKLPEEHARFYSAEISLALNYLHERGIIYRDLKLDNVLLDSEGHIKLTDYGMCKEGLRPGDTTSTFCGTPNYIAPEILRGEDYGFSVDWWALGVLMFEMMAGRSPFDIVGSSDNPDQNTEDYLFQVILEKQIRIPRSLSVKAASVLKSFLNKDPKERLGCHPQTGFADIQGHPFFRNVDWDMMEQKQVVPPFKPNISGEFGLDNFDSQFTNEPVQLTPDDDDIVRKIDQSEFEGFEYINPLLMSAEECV
In words: Selectivity interaction (KinomeScan (DiscoverX)) EUB0000607a PRKCI. The note with it: at 10 µM.

Test [3] has as its target ALK tyrosine kinase receptor (Homo sapiens, UniProt Q9UM73). In words: Selectivity interaction (SelectScreen profiling (Invitrogen)) EUB0000607a ALK. To be noted: at 2 µM.
Test [4] deals with Ribosomal protein S6 kinase alpha-1 (Homo sapiens, UniProt Q15418). Description: Selectivity interaction (KinomeScan (DiscoverX)) EUB0000655a RPS6KA1. To be noted: at 10 µM.
Test [5] has as its target D(2) dopamine receptor (Homo sapiens, UniProt P14416). In words: Selectivity interaction (GPCR panel (PDSP screen)) EUB0001079a DRD2. To be noted: at 10 µM.
The target in test [6] is T3, Mitogen-activated protein kinase 12 (Homo sapiens) (UniProt P53778).
T3 sequence (whole entry): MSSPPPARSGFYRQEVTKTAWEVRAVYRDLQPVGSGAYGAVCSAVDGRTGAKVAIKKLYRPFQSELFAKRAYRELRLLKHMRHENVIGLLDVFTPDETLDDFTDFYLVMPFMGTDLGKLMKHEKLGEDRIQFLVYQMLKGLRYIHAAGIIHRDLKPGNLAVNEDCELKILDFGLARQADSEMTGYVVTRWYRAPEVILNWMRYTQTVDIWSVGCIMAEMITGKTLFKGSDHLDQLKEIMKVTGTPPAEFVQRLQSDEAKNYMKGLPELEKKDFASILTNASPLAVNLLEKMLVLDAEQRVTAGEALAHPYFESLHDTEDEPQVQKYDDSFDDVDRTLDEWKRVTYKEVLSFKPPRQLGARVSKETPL
Description: Selectivity interaction (ActivX KiNativ screen (ex vivo kinase selectivity in human PBMCs)) EUB0001619a MAPK12. To be noted: PBMC, at 1 µM. Type of test: cell-based.

The target in test [7] is Tyrosine-protein kinase Fes/Fps (Homo sapiens) (UniProt P07332). Description: Selectivity interaction (KinomeScan (DiscoverX)) EUB0001619a FES. The note with it: at 1 µM.
The target in test [8] is MAP/microtubule affinity-regulating kinase 3 (Homo sapiens) (UniProt P27448). In words: Selectivity interaction (ActivX KiNativ screen (kinase selectivity in THP-1 cell lysates)) EUB0000639a MARK3. Type of test: subcellular. To be noted: lysate, at 1 µM.
For test [9], the target named is T4, Mitogen-activated protein kinase kinase kinase 7 (Homo sapiens) (UniProt O43318).
T4 sequence (whole entry): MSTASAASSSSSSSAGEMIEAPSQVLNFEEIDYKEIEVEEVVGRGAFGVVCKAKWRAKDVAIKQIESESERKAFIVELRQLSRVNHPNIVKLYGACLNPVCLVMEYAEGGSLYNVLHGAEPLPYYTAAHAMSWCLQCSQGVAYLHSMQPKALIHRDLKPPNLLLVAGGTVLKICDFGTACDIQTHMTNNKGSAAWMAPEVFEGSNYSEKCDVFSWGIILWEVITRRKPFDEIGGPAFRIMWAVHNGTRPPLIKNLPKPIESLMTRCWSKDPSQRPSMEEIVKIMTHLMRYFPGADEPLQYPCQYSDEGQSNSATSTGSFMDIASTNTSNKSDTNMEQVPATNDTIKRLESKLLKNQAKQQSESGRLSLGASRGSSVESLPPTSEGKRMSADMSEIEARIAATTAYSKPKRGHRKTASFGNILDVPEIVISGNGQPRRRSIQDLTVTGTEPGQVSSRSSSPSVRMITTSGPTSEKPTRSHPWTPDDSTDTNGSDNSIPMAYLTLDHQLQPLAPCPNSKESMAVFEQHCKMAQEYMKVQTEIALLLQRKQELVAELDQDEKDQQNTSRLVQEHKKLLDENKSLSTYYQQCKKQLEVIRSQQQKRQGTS
Description: Selectivity interaction (Kinase panel (Invitrogen)) EUB0000639a MAP3K7. To be noted: at 200 nM.

Test [10] concerns the target Mitogen-activated protein kinase 8 (Homo sapiens, UniProt P45983). In words: Selectivity interaction (KinomeScan (DiscoverX)) EUB0001049a MAPK8. To be noted: at 1 µM.
The target of test [11] is Serine/threonine-protein kinase MARK2 (Homo sapiens) (UniProt Q7KZI7). Description: Selectivity interaction (Upstate Kinase Profiler service (Millipore)) EUB0000056c MARK2. The note with it: at 1 µM.

Structures are written as SMILES.

Chain of ALK tyrosine kinase receptor (Q9UM73 19-1620 limits assumed): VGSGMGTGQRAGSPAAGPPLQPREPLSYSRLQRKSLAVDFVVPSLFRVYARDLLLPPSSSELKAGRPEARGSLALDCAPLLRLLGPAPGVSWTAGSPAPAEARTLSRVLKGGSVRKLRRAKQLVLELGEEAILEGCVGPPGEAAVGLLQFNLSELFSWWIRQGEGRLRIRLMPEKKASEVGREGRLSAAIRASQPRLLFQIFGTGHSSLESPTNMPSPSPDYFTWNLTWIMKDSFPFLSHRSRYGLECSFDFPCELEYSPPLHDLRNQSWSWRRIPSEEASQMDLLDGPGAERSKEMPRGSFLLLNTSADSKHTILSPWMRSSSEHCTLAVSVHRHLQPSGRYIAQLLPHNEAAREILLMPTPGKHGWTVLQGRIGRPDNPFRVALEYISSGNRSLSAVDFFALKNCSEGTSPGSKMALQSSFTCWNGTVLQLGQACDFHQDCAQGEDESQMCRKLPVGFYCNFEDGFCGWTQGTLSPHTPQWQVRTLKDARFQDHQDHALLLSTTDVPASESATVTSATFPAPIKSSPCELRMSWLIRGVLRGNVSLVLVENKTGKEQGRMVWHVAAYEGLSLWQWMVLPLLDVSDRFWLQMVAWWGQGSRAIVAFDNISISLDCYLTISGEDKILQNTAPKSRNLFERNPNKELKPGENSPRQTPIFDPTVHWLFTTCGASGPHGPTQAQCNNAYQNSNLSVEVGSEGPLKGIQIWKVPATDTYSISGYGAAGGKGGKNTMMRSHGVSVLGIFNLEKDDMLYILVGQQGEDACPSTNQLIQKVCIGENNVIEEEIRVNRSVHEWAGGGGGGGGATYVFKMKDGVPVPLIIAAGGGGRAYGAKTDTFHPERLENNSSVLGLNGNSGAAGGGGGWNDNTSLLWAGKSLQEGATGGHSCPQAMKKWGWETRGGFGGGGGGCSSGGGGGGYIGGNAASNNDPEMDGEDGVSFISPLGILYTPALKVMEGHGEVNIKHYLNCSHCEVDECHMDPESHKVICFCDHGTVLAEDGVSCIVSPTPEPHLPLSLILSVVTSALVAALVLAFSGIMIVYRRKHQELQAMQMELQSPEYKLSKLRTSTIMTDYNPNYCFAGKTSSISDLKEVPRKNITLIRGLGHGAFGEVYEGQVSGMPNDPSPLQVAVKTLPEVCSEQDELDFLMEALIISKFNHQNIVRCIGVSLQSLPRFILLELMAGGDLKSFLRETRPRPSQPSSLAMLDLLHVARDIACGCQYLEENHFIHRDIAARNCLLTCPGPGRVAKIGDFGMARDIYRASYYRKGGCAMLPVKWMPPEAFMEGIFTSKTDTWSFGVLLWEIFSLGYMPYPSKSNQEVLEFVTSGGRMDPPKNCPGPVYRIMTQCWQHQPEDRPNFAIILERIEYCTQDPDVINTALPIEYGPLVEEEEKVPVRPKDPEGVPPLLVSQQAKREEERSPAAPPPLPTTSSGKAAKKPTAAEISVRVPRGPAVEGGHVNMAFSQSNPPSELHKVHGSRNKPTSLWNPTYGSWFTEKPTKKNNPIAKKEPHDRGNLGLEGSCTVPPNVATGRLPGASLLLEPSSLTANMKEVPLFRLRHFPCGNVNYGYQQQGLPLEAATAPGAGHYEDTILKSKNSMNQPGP
Chain of Serine/threonine-protein kinase MARK2 (Homo sapiens) (Q7KZI7 whole entry): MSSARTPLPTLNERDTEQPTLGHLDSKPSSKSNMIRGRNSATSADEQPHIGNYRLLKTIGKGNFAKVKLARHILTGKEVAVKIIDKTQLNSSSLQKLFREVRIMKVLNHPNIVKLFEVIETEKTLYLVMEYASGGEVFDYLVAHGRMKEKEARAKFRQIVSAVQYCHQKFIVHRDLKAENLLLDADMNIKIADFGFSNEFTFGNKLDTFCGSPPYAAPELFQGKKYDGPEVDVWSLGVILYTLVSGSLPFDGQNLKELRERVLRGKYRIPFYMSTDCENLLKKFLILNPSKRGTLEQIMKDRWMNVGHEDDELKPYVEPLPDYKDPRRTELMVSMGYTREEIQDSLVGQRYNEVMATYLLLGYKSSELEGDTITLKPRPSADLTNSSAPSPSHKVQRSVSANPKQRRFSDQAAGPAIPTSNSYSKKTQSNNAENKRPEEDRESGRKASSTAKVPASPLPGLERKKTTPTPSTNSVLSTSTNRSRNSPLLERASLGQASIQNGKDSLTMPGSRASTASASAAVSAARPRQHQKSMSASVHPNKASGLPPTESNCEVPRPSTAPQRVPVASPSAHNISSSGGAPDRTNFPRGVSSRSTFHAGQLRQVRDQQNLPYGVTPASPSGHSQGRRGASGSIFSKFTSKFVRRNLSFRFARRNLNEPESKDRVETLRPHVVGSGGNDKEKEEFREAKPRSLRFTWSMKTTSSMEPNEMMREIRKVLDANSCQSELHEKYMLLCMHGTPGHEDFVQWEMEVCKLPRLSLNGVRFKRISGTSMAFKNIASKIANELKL
Chain of MAP/microtubule affinity-regulating kinase 3 (Homo sapiens) (P27448 whole entry, looked up): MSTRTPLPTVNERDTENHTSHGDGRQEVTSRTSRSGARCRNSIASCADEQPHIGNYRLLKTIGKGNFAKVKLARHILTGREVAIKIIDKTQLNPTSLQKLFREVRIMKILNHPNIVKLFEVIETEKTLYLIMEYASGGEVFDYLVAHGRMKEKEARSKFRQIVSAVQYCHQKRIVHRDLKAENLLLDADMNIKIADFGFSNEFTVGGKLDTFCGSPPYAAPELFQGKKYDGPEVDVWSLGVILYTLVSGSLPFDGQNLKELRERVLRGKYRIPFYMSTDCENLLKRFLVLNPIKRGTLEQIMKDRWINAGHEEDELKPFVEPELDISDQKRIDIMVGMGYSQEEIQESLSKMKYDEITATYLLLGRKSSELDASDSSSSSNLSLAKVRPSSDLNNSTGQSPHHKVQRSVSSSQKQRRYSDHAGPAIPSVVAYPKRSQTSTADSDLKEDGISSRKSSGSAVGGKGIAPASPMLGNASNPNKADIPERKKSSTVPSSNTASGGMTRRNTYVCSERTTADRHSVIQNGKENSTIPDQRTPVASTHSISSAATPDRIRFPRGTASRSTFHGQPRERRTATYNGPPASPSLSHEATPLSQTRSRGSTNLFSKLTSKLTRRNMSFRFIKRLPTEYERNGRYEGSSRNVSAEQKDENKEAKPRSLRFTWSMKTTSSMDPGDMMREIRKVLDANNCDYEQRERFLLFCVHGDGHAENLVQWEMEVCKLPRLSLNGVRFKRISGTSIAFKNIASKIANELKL
Chain of Mitogen-activated protein kinase 8 (P45983 whole entry): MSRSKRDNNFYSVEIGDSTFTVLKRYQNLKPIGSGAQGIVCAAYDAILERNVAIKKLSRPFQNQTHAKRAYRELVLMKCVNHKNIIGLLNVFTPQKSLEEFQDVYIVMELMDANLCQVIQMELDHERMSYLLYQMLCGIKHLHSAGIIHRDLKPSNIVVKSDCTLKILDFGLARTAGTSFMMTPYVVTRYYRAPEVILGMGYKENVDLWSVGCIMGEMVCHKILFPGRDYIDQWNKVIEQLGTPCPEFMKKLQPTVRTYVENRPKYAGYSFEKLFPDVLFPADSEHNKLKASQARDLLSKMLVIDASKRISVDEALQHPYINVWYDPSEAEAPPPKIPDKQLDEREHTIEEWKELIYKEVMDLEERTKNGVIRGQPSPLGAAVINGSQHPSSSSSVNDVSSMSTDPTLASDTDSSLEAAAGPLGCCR
Chain of Ribosomal protein S6 kinase alpha-1 (Q15418 whole entry): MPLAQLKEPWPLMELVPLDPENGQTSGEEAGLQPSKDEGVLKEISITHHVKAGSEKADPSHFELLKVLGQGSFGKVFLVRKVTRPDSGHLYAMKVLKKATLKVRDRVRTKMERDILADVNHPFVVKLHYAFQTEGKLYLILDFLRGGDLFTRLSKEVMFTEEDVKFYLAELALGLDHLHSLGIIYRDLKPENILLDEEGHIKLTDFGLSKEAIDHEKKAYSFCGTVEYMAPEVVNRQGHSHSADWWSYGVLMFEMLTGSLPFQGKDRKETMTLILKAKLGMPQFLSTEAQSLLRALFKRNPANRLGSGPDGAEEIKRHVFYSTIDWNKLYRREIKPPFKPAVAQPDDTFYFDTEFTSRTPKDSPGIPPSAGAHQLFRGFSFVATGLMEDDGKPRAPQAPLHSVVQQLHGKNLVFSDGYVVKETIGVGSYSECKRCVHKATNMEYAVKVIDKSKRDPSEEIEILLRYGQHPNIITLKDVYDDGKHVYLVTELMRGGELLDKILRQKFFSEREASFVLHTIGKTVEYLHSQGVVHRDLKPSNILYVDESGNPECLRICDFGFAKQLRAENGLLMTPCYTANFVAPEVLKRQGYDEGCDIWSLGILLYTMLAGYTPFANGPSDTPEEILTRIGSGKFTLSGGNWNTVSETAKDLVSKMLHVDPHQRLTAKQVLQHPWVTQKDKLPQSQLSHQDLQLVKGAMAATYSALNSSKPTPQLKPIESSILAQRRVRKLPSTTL
Chain of D(2) dopamine receptor (P14416 whole entry): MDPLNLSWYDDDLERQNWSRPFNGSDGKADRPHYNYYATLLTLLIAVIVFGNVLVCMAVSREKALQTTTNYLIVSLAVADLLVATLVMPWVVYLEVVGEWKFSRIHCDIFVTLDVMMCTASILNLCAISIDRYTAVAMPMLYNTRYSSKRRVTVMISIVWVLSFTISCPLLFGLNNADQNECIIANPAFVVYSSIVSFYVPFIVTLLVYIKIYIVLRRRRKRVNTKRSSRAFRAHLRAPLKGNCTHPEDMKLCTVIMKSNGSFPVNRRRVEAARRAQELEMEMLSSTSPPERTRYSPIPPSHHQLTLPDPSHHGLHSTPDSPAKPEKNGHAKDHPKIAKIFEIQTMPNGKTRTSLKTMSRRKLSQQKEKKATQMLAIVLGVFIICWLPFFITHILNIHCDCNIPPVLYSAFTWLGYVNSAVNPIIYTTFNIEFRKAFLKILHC

As to `CNC(=O)Nc1ccc(-c2nc(N3CC4CCC(C3)O4)c3cnn(C4CCC5(CC4)OCCO5)c3n2)cc1`, the % of inhibition in test [1] was -5%; in test [3], 0%. In test [2], this compound returned a % of control of 67%.
In [4], `CN(C)CCOc1ccc(-c2nc(-c3ccncc3)c(-c3ccc4c(c3)CC/C4=N\O)[nH]2)cc1` showed a % of control of 91%.
`Nc1cnc(N2CCc3cc(S(=O)(=O)Nc4c(F)cc(Cl)cc4F)cc(N4CCCC4=O)c32)nc1` [TP-020n]: in [5], the % of inhibition is -0.42%.
Take `N#Cc1cccc(-c2c[nH]c3ncnc(N4CCOCC4)c23)c1`: the % of inhibition in test [6] was -6%. In test [7], this compound registered a % of control of 100%.
As to `CC[C@@H]1[C@H](F)C(=O)N[C@@H]1COc1nccc2cc(C(N)=O)c(OC)cc12` [ZIMLOVISERTIB], the % of inhibition in [8] came out at 21.6%; in [9], 8.31%.
In test [10], `COc1cc(Nc2nc(C)cc(-c3cnn4nc(OC)ccc34)n2)cc(C(F)(F)F)c1` had a % of control of 88%.
With `Cc1ccc(-c2ccc3c(ccc4sc5c(c43)NC[C@@H](C)NC5=O)n2)cn1`, the % of inhibition in test [11] was found to be 6%.

The values are drawn from ChEMBL document CHEMBL5465560, “Selectivity Literature for EUbOPEN Chemogenomic Library” (2024).
